Measured values published in patent publication US12208090B2, “Compounds for use in treating depression and migraine” (Khondrion IP B.V., priority 2017, dated 2025).

Tests used:
[1] = tested on: patients carrying the mutation m.3243A>G in the mitochondrial DNA; assay: Khenergy phase 2 trial: Beck Depression Inventory-II (BDI); type: in vivo, human
From the text: (§1) The Khenergy trial (clinicaltrial.gov identifier NCT02909400) was a double blind, randomized, placebo-controlled, single-centre, two-way cross-over trial. Twenty patients, with a confirmed mitochondrial DNA tRNALeu(UUR) m.3243A>G mutation and with clinical signs of mitochondrial disease, were randomized over 2 groups (active or placebo first). After a screening period and a training session, each group had 2 dosing periods of 28 days, with a washout period of at least 28 days in between. On these occasions (i.e. during the dosing periods), patients received 100 mg KH176 twice daily (treatment A) or a matching placebo (treatment B) twice daily for 28 days. Clinical assessments were performed once in a training session prior to baseline, at baseline and in week 4 post dosing during each treatment phase (A and B). Testing conditions and circumstances, with respect to timing of the assessments, hospitalization and meals, were standardized for each assessment period. Furthermore, assessments of biomarkers for mitochondrial functioning, pharmacokinetics and specific safety assessments were performed weekly. Trial results have been published (Janssen, Koene, De Laat, et al., 2018)
The effect of KH176 on depression symptoms in patients carrying the mutation m.3243A>G in the mitochondrial DNA was evaluated with the Beck Depression Inventory-II (BDI) score and Hospital Anxiety and Depression Scale (HADS) during the Khenergy phase 2 clinical trial (clinicaltrial.gov identifier NCT02909400). […] This observation was supported by a positive trend in the Hospital Anxiety and Depression Scale (effect size, −1.9 (95% Cl, −3.6 to −0.2); P=0.03).

[2] = tested on: patients who suffer from chronic migraine; assay: Khenergy phase 2 trial: patient-reported migraine and headache; type: in vivo, human
From the text: as §1
Two patients from the Khenergy Phase 2 clinical trial have spontaneously reported a decreased frequency of migraine event during the treatment period with KH176 (reported before unblinding of the study). A third patient retrospectively reported that they had more migraines during the placebo treatment period over the KH176 treatment period.

[3] = 100 mg KH176 twice daily for 28 days vs matching placebo, cross-over

Cc1c(C)c2c(c(C)c1O)CC[C@@](C)(C(=O)N[C@@H]1CCCNC1)O2 [KH176]
Beck Depression Affective Subscale, effect size, comparison KH176-Placebo [1, 3]: −1.1
Beck Depression Inventory total score, effect size, comparison KH176-Placebo [1, 3]: −2.9
effect on depression symptoms (in words) ([1]; KHENERGY trial, mitochondrial disease patients): significantly reduce depression symptoms
effect on migraine events (in words) ([2]; KHENERGY trial, patients who previously chronically suffered from migraine, KH176 treatment period): reduction of the intensity and number of migraine events
headache during the 4 weeks of KH176 ([2]; Patient A, before: severe headaches every day, migraine 2 times a week): NO headache
patients with a positive effect on migraine ([2]; patients of the trial who suffer from chronic migraine): 3 out of 3
